In this assay the target is T1, human HSL (Homo sapiens, UniProt Q05469).
T1 construct: overlapping PCR to generate a full length human HSL ORF with a 3′-His6 tag; His6 (C); made in house; host or cells: High 5 insect cells (baculovirus, pFast-BAC)
T1 sequence (Q05469 1-1076): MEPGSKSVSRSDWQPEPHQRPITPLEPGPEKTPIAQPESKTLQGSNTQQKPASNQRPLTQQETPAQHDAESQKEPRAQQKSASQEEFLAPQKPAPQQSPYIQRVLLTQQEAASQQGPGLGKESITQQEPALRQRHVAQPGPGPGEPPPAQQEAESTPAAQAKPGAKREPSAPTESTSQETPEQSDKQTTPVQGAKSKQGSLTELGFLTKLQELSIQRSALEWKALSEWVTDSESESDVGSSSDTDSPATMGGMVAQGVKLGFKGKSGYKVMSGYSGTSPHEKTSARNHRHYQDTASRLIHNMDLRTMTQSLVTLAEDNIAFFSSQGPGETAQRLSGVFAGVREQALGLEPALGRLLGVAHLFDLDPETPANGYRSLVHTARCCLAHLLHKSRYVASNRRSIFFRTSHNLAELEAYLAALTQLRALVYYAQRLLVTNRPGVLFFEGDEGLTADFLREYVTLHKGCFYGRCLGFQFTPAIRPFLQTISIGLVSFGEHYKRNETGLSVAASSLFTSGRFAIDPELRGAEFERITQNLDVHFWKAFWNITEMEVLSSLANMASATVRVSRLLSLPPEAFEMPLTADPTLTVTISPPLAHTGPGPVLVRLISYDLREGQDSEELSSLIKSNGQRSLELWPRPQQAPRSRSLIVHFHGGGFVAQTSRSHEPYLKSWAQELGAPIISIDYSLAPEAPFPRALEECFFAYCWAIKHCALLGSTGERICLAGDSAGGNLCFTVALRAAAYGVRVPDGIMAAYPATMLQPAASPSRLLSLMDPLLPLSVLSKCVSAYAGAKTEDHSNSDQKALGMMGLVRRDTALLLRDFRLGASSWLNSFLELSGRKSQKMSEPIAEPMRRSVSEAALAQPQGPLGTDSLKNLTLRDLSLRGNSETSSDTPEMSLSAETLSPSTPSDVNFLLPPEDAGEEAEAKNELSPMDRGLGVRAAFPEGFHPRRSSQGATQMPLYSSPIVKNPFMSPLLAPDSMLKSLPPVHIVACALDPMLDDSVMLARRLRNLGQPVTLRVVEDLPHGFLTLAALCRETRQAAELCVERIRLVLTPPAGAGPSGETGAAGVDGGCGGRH
Description: Human Hormone-Sensitive Lipase (HSL) Enzyme Inhibition Assay. To be noted: colorimetric assay, 2,3-dimercapto-1-propanol tributyrate (DMPT) substrate, 37° C. for 20 minutes, absorbance at 405 nm; read-out: HSL hum IC50. Format: biochemical. In short, it runs like this: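 Colorimetric thioester hydrolysis: compounds in DMSO series mixed with DMPT (1.5 mM) in MOPS pH 7.2 with BSA, then baculovirus-expressed His6-tagged full-length human HSL added, 37° C, 20 min. DTNB plus detergents added, 15 min room temperature, absorbance at 405 nm.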

Each structure is given as a SMILES string.

Consider `O=C1N(c2ccc(C(O)CF)cc2)CCC12CCN(S(=O)(=O)c1ccccc1C(F)(F)F)CC2` (centres unmarked) [Example 173, 2-(4-(2-fluoro-1-hydroxyethyl)phenyl)-8-(2-(trifluoromethyl)phenylsulfonyl)-2,8-diazaspiro[4.5]decan-1-one], for which the concentration for half-maximal inhibition (IC50) worked out at 0.14 µM.
For `CC(C)(O)c1ccc(N2CCC3(CCN(S(=O)(=O)c4ccccc4C(F)(F)F)CC3)C2=O)cc1` [Example 174, 2-[4-(1-Hydroxy-1-methyl-ethyl)-phenyl]-8-(2-trifluoromethyl-benzenesulfonyl)-2,8-diaza-spiro[4.5]decan-1-one] the value was 0.06 µM.
The same measure for `CC(C)(C)CC(=O)N1CCC2(CC1)CCN(c1ccc(C(O)C(C)(F)F)cc1)C2=O` (centres unmarked) [Example 175, 2-(4-(2,2-difluoro-1-hydroxypropyl)phenyl)-8-(3,3-dimethylbutanoyl)-2,8-diazaspiro[4.5]decan-1-one]: 0.75 µM; for `CC(C)CS(=O)(=O)N1CCC2(CCN(c3ccc(C(O)C(F)F)cc3)C2=O)CC1` (centres unmarked) [Example 177, 2-(4-(2,2-difluoro-1-hydroxyethyl)phenyl)-8-(isobutylsulfonyl)-2,8-diazaspiro[4.5]decan-1-one]: 0.45 µM; for `CC(C)(C)CC(=O)N1CCC2(CC1)CCN(c1ccc(C(O)C(F)F)cc1)C2=O` (centres unmarked) [Example 178, 2-(4-(2,2-difluoro-1-hydroxyethyl)phenyl)-8-(3,3-dimethylbutanoyl)-2,8-diazaspiro[4.5]decan-1-one]: 0.64 µM.
The same measure for `O=C1N(c2ccc(C(F)(F)F)cc2)CCC12CCN(S(=O)(=O)c1ccccc1Cl)CC2` [Example 179, 8-(2-Chloro-benzenesulfonyl)-2-(4-trifluoromethyl-phenyl)-2,8-diaza-spiro[4.5]decan-1-one]: 0.04 µM.
Turning to `Cc1nn(C)c(C)c1S(=O)(=O)N1CCC2(CCN(c3ccc(OC(F)(F)F)cc3)C2=O)CC1` [Example 180, 2-(4-Trifluoromethoxy-phenyl)-8-(1,3,5-trimethyl-1H-pyrazole-4-sulfonyl)-2,8-diaza-spiro[4.5]decan-1-one], the IC50 came to 0.06 µM.
For `Cn1cnc(S(=O)(=O)N2CCC3(CCN(c4ccc(OC(F)(F)F)cc4)C3=O)CC2)c1` [Example 181, 8-(1-Methyl-1H-imidazole-4-sulfonyl)-2-(4-trifluoromethoxy-phenyl)-2,8-diaza-spiro[4.5]decan-1-one] the value was 0.26 µM.
Take `O=C1N(c2ccc(OC(F)(F)F)cc2)CCC12CCN(S(=O)(=O)N1CCCC1)CC2` [Example 182, 8-(Pyrrolidine-1-sulfonyl)-2-(4-trifluoromethoxy-phenyl)-2,8-diaza-spiro[4.5]decan-1-one]: the IC50 is 0.09 µM.
The same measure for `Cn1nccc1S(=O)(=O)N1CCC2(CCN(c3ccc(OC(F)(F)F)cc3)C2=O)CC1` [Example 183, 8-(2-Methyl-2H-pyrazole-3-sulfonyl)-2-(4-trifluoromethoxy-phenyl)-2,8-diaza-spiro[4.5]decan-1-one]: 0.04 µM; for `Cn1ccc(S(=O)(=O)N2CCC3(CCN(c4ccc(OC(F)(F)F)cc4)C3=O)CC2)n1` [Example 184, 8-(1-Methyl-1H-pyrazole-3-sulfonyl)-2-(4-trifluoromethoxy-phenyl)-2,8-diaza-spiro[4.5]decan-1-one]: 0.08 µM; for `Cc1oncc1S(=O)(=O)N1CCC2(CCN(c3ccc(OC(F)(F)F)cc3)C2=O)CC1` [Example 185, 8-(5-Methyl-isoxazole-4-sulfonyl)-2-(4-trifluoromethoxy-phenyl)-2,8-diaza-spiro[4.5]decan-1-one]: 0.22 µM.
`Cc1noc(C)c1S(=O)(=O)N1CCC2(CCN(c3ccc(OC(F)(F)F)cc3)C2=O)CC1` [Example 186, 8-(3,5-Dimethyl-isoxazole-4-sulfonyl)-2-(4-trifluoromethoxy-phenyl)-2,8-diaza-spiro[4.5]decan-1-one]: the 50% inhibitory concentration (IC50) was determined as 0.11 µM.
On to `O=C1N(c2ccc(OC(F)(F)F)cc2)CCC12CCN(S(=O)(=O)c1cccnc1)CC2` [Example 187, 8-(Pyridine-3-sulfonyl)-2-(4-trifluoromethoxy-phenyl)-2,8-diaza-spiro[4.5]decan-1-one], for which the 50% inhibitory concentration (IC50) was found to be 0.03 µM.

(Values after US8329904B2, “Azacyclic derivatives” (Hoffmann-La Roche Inc., priority 2009, dated 2012).)
